Reference: patent US20120029177A1, “HETEROCYCLE-AMINO ACID DERIVATIVES FOR TARGETING CANCER TISSUE AND RADIOACTIVE OR NON-RADIOACTIVE LABELED COMPOUNDS THEREOF” (SNU R&DB FOUNDATION, priority 2009, published 2012)

Tested on: SNU-C4 xenografted nude mice
Assay: Biodistribution study in SNU-C4 xenografted nude mice after intravenous injection
Type: in vivo, mouse
Details: for % ID/g Tumor: SNU-C4 tumor
Protocol: Human colon cancer cell line SNU-C4 was cultured in RPMI1640 media containing 10% fetal bovine serum and harvested using trypsin. The cells were washed using 10 mL PBS and centrifugation at 3,000 rpm. Each nude mouse was injected with 2×10^5 cells/0.1 mL on the right shoulder subcutaneously. On 13 days post-injection, each 10 μCi/0.1 mL of ^68Ga labeled agent was injected into the xenografted mice through the tail vein. The injected mice were sacrificed at 10 min, 30 min, 1 hr, and 2 hr, cancer, blood, muscle, heart, liver, spleen, stomach, intestine, and bone were obtained, weighed, and their radioactivities were counted. The results were expressed as percentages of injected dose per gram tissue (% ID/g).

[1] = 10 min after intravenous injection
[2] = 30 min after intravenous injection
[3] = 1 hr after intravenous injection
[4] = 2 hr after intravenous injection

## O=C([O-])CN1CCN(CC(=O)[O-])CCN(CC(=O)[O-])CC1.[68Ga+3] [^68Ga-NOTA, reference compound]
[1]
  % ID/g Tumor: 2.69 ± 0.19 % ID/g
  % ID/g Blood: 7.13 ± 0.77 % ID/g
  % ID/g Bone: 1.95 ± 0.06 % ID/g
  % ID/g Heart: 1.83 ± 0.16 % ID/g
  % ID/g Intestine: 1.52 ± 0.08 % ID/g
  % ID/g Kidney: 11.61 ± 0.61 % ID/g
  % ID/g Liver: 1.98 ± 0.19 % ID/g
  % ID/g Muscle: 1.68 ± 0.86 % ID/g
  % ID/g Spleen: 1.41 ± 0.19 % ID/g
  % ID/g Stomach: 2.13 ± 0.26 % ID/g
[2]
  % ID/g Tumor: 1.28 ± 0.22 % ID/g
  % ID/g Blood: 2.55 ± 0.31 % ID/g
  % ID/g Bone: 0.65 ± 0.16 % ID/g
  % ID/g Heart: 0.59 ± 0.07 % ID/g
  % ID/g Intestine: 0.84 ± 0.10 % ID/g
  % ID/g Kidney: 7.44 ± 1.29 % ID/g
  % ID/g Liver: 1.44 ± 0.29 % ID/g
  % ID/g Muscle: 0.77 ± 0.19 % ID/g
  % ID/g Spleen: 0.62 ± 0.09 % ID/g
  % ID/g Stomach: 0.76 ± 0.31 % ID/g
[3]
  % ID/g Tumor: 0.59 ± 0.18 % ID/g
  % ID/g Blood: 0.41 ± 0.24 % ID/g
  % ID/g Bone: 0.15 ± 0.09 % ID/g
  % ID/g Heart: 0.15 ± 0.10 % ID/g
  % ID/g Intestine: 0.33 ± 0.14 % ID/g
  % ID/g Kidney: 3.56 ± 2.10 % ID/g
  % ID/g Liver: 1.04 ± 0.35 % ID/g
  % ID/g Muscle: 0.20 ± 0.17 % ID/g
  % ID/g Spleen: 0.22 ± 0.09 % ID/g
  % ID/g Stomach: 0.20 ± 0.10 % ID/g
[4]
  % ID/g Tumor: 0.43 ± 0.06 % ID/g
  % ID/g Blood: 0.07 ± 0.00 % ID/g
  % ID/g Bone: 0.06 ± 0.07 % ID/g
  % ID/g Heart: 0.07 ± 0.07 % ID/g
  % ID/g Intestine: 0.47 ± 0.17 % ID/g
  % ID/g Kidney: 2.73 ± 0.32 % ID/g
  % ID/g Liver: 1.21 ± 0.21 % ID/g
  % ID/g Muscle: 0.04 ± 0.01 % ID/g
  % ID/g Spleen: 0.19 ± 0.03 % ID/g
  % ID/g Stomach: 0.11 ± 0.03 % ID/g

## O=C([O-])CN1CCNCCN(CC(=O)[O-])CCN(CC(=O)[O-])CC1.[68Ga+3] [^68Ga-DO3A, reference compound]
[1]
  % ID/g Tumor: 3.14 ± 0.73 % ID/g
  % ID/g Blood: 6.96 ± 0.18 % ID/g
  % ID/g Bone: 1.64 ± 0.48 % ID/g
  % ID/g Heart: 1.75 ± 0.12 % ID/g
  % ID/g Intestine: 1.87 ± 0.06 % ID/g
  % ID/g Kidney: 11.96 ± 0.51 % ID/g
  % ID/g Liver: 1.99 ± 0.03 % ID/g
  % ID/g Lung: 5.81 ± 0.54 % ID/g
  % ID/g Muscle: 1.69 ± 0.39 % ID/g
  % ID/g Spleen: 1.63 ± 0.08 % ID/g
  % ID/g Stomach: 2.37 ± 0.56 % ID/g
[2]
  % ID/g Tumor: 1.83 ± 0.20 % ID/g
  % ID/g Blood: 3.21 ± 0.58 % ID/g
  % ID/g Bone: 0.97 ± 0.28 % ID/g
  % ID/g Heart: 0.77 ± 0.11 % ID/g
  % ID/g Intestine: 1.00 ± 0.14 % ID/g
  % ID/g Kidney: 7.85 ± 1.00 % ID/g
  % ID/g Liver: 1.35 ± 0.13 % ID/g
  % ID/g Lung: 2.82 ± 0.59 % ID/g
  % ID/g Muscle: 0.92 ± 0.27 % ID/g
  % ID/g Spleen: 0.95 ± 0.14 % ID/g
  % ID/g Stomach: 1.00 ± 0.24 % ID/g
[3]
  % ID/g Tumor: 0.93 ± 0.33 % ID/g
  % ID/g Blood: 1.03 ± 0.34 % ID/g
  % ID/g Bone: 0.38 ± 0.12 % ID/g
  % ID/g Heart: 0.32 ± 0.09 % ID/g
  % ID/g Intestine: 0.64 ± 0.17 % ID/g
  % ID/g Kidney: 6.52 ± 3.13 % ID/g
  % ID/g Liver: 1.02 ± 0.16 % ID/g
  % ID/g Lung: 1.26 ± 0.28 % ID/g
  % ID/g Muscle: 0.32 ± 0.17 % ID/g
  % ID/g Spleen: 0.64 ± 0.09 % ID/g
  % ID/g Stomach: 0.43 ± 0.20 % ID/g
[4]
  % ID/g Tumor: 0.54 ± 0.04 % ID/g
  % ID/g Blood: 0.22 ± 0.02 % ID/g
  % ID/g Bone: 0.28 ± 0.33 % ID/g
  % ID/g Heart: 0.06 ± 0.09 % ID/g
  % ID/g Intestine: 0.42 ± 0.08 % ID/g
  % ID/g Kidney: 7.50 ± 3.82 % ID/g
  % ID/g Liver: 0.93 ± 0.05 % ID/g
  % ID/g Lung: 0.61 ± 0.23 % ID/g
  % ID/g Muscle: 0.10 ± 0.03 % ID/g
  % ID/g Spleen: 0.53 ± 0.11 % ID/g
  % ID/g Stomach: 0.16 ± 0.05 % ID/g

## O=C([O-])CN1CCN(CC(=O)[O-])CCN(CC(=O)O)CCN(CC(=O)[O-])CC1.[68Ga+3] [^68Ga-DOTA, reference compound]
[1]
  % ID/g Tumor: 2.55 ± 0.81 % ID/g
  % ID/g Blood: 7.52 ± 0.77 % ID/g
  % ID/g Bone: 1.86 ± 0.22 % ID/g
  % ID/g Heart: 2.04 ± 0.19 % ID/g
  % ID/g Intestine: 1.62 ± 0.11 % ID/g
  % ID/g Kidney: 16.19 ± 1.83 % ID/g
  % ID/g Liver: 1.30 ± 0.15 % ID/g
  % ID/g Muscle: 2.08 ± 0.11 % ID/g
  % ID/g Spleen: 1.41 ± 0.08 % ID/g
  % ID/g Stomach: 1.86 ± 0.39 % ID/g
[2]
  % ID/g Tumor: 1.26 ± 0.23 % ID/g
  % ID/g Blood: 2.76 ± 0.41 % ID/g
  % ID/g Bone: 0.85 ± 0.11 % ID/g
  % ID/g Heart: 0.68 ± 0.09 % ID/g
  % ID/g Intestine: 0.68 ± 0.08 % ID/g
  % ID/g Kidney: 6.33 ± 0.95 % ID/g
  % ID/g Liver: 0.60 ± 0.08 % ID/g
  % ID/g Muscle: 0.70 ± 0.12 % ID/g
  % ID/g Spleen: 0.56 ± 0.07 % ID/g
  % ID/g Stomach: 0.72 ± 0.15 % ID/g
[3]
  % ID/g Tumor: 0.60 ± 0.06 % ID/g
  % ID/g Blood: 0.90 ± 0.19 % ID/g
  % ID/g Bone: 0.33 ± 0.10 % ID/g
  % ID/g Heart: 0.23 ± 0.08 % ID/g
  % ID/g Intestine: 0.36 ± 0.05 % ID/g
  % ID/g Kidney: 4.13 ± 1.13 % ID/g
  % ID/g Liver: 0.32 ± 0.04 % ID/g
  % ID/g Muscle: 0.26 ± 0.12 % ID/g
  % ID/g Spleen: 0.27 ± 0.06 % ID/g
  % ID/g Stomach: 0.26 ± 0.06 % ID/g
[4]
  % ID/g Tumor: 0.41 ± 0.09 % ID/g
  % ID/g Blood: 0.21 ± 0.01 % ID/g
  % ID/g Bone: 0.17 ± 0.17 % ID/g
  % ID/g Heart: 0.08 ± 0.05 % ID/g
  % ID/g Intestine: 0.26 ± 0.08 % ID/g
  % ID/g Kidney: 2.92 ± 0.97 % ID/g
  % ID/g Liver: 0.21 ± 0.03 % ID/g
  % ID/g Muscle: 0.10 ± 0.04 % ID/g
  % ID/g Spleen: 0.18 ± 0.06 % ID/g
  % ID/g Stomach: 0.10 ± 0.03 % ID/g
